Reference: patent US20140336182A1, “Aurora Kinase Modulators and Method of Use” (Amgen Inc., priority 2013, published 2014)
Like-named read-outs stand apart in the source and are kept apart here.

Tested on: HeLa cells
Test: HeLa cell 24 hr ploidy assay (DNA content)
Type: cell-based
Conditions: 4N ploidy, average, read-out: 24h_4NPloidy EC50_IP (uM Avg)
Procedure, shortened: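 DNA content measured by Hoechst 33342 nuclear staining (0.5 ug/ml, 45 min RT) and high-content imaging of fixed HeLa cells after 24 h compound exposure in 0.25% DMSO. Fractions of 4N and >4N cells fitted to dose curves giving EC50 IP, EC50 transit, Max and Min.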

Structure (SMILES) | EC50 (Homo sapiens, HeLa, HeLa cells) [µM] | further results
COc1ccc2c(Cc3ccc(Nc4nnc(-c5ccc(Cl)cc5)c5ccccc45)cc3)ccnc2c1 [compound 328] | 0.006 | –
COc1cc(F)cc2nccc(Sc3ccc(Nc4nnc(-c5cc(C)cs5)c5ccccc45)cc3)c12 [compound 440] | 0.029 | –
CCOc1nnc(Nc2ccc(Sc3ccnc4cc(OC)cnc34)cc2)c2ccccc12 [compound 512] | 0.033 | –
Cc1ccc(-c2nnc(Nc3ccc(Oc4ccnc5cc(C#N)ccc45)cc3)c3ccccc23)cc1 [compound 88] | – | EC50 (Homo sapiens, HeLa): 0.006 µM
COc1ccc2c(Sc3ccc(Nc4nnc(-c5ccccc5)c5ccccc45)cc3)ccnc2c1 [compound 331] | 0.021 | –
COc1cnc2c(Oc3ccc(Nc4nnc(-c5cccc(C#N)c5)c5ccccc45)cc3)ccnc2c1 [Example 29, 3-(4-(4-(7-methoxy-1,5-naphthyridin-4-yloxy)phenylamino)phthalazin-1-yl)benzonitrile] | – | EC50 (Homo sapiens, HeLa): 0.442 µM
COc1cc2nccc(Sc3ccc(Nc4nnc(-c5ccccc5)c5ccccc45)cc3)c2nc1OC [compound 597] | 0.061 | –
COc1cnc2c(Sc3ccc(Nc4nnc(-c5ccccc5)c5ccccc45)cc3F)ccnc2c1 [compound 519] | 0.009 | –
c1cnc2c(Sc3ccc(Nc4nnc(-c5ccc6c(c5)OCO6)c5ccccc45)cc3)ccnc2c1 [compound 443] | 0.007 | –
COc1cnc2c(Oc3ccc(Nc4nnc(-c5ccccc5)c5ccccc45)nc3)ccnc2c1 [compound 135] | – | EC50 (Homo sapiens, HeLa): 0.449 µM
COCCOCCOc1ccc2nccc(Sc3ccc(Nc4nnc(-c5ccc(Cl)cc5)c5ccccc45)cc3)c2c1 [Example 389, 4-(4-Chlorophenyl)-N-(4-(6-(2-(2-methoxyethoxy)ethoxy)quinolin-4-ylthio)phenyl) phthalazin-1-amine] | 0.055 | –
COc1cnc2c(Sc3ccc(Nc4nnc(-c5ccc(C)c(O)c5)c5ccccc45)cc3)ccnc2c1 [compound 451] | < 0.0023 | –
CCc1cc(-c2ccc(C)cc2)nnc1Nc1ccc(Oc2ccnc3cc(OC)cnc23)cc1 [compound 307] | 0.023 | –
N#Cc1ccc2c(Oc3ccc(Nc4nnc(-c5ccc(Cl)c(C#N)c5)c5ccccc45)cc3)ccnc2c1 [compound 231] | 0.067 | –
c1ccc2c(-c3ccc4c(c3)OCO4)nnc(Nc3ccc(Oc4ccnc5ccsc45)cc3)c2c1 [compound 279] | 0.011 | –
COc1cnc2c(Oc3ccc(Nc4nnc(-c5ccc(C)cn5)c5ccccc45)cc3)ccnc2c1 [compound 125] | – | EC50 (Homo sapiens, HeLa): 0.059 µM
Cc1csc(-c2nnc(Nc3ccc(Oc4ccnc5cccnc45)cc3)c3cc(F)c(F)cc23)c1 [compound 510] | 0.017 | –
c1ccc2c(Sc3ccc(Nc4nnc(-c5ccc6c(c5)OCO6)c5ccccc45)cc3)ccnc2c1 [compound 517] | 0.011 | –
Clc1ccc(-c2nnc(Nc3ccc(Oc4ccnc5ccoc45)cc3)c3ccccc23)cc1 [compound 483] | 0.102 | –
COc1cnc2c(Sc3ccc(Nc4nnc(N5CCN6CCCC[C@@H]6C5)c5ccccc45)cc3)ccnc2c1 [compound 584] | – | EC50 (HeLa cells): 0.005 µM
COc1cnc2c(Oc3ccc(Nc4nnc(-c5ccc(C)c(N)c5)c5cc(F)c(F)cc45)cc3)ccnc2c1 [compound 545] | 0.012 | –
COc1cc(OC)c2c(Oc3ccc(Nc4nnc(-c5ccccc5)c5ccccc45)cn3)ncnc2c1 [compound 606] | 0.292 | –
COc1cnc2c(Oc3ccc(Nc4nnc(-c5cc6ccccc6o5)c5ccccc45)cc3)ccnc2c1 [compound 176] | 0.008 | –
COc1cnc2c(Oc3ccc(Nc4nnc(-c5ccccc5)c5ccccc45)cc3F)ccnc2c1 [compound 89, N-(3-fluoro-4-((7-(methyloxy)-1,5-naphthyridin-4-yl)oxy)phenyl)-4-phenyl-1-phthalazinamine] | – | EC50 (Homo sapiens, HeLa): 0.052 µM
Fc1cc(F)c2c(Oc3ccc(Nc4nnc(-c5ccccc5)c5ccccc45)cc3)ccnc2c1 [compound 276] | 0.054 | –

Structure (SMILES) | EC50 (Homo sapiens, HeLa, HeLa cells) [µM] | further results
FC(F)Oc1cnc2c(Sc3ccc(Nc4nnc(-c5ccccc5)c5ccccc45)cc3)ccnc2c1 [Example 387, N-(4-(7-(difluoromethoxy)-1,5-naphthyridin-4-ylthio)phenyl)-4-phenylphthalazin-1-amine] | 0.12 | –
COc1cnc2c(Sc3ccc(Nc4nnc(OC(C)C)c5ccccc45)cc3)ccnc2c1 [compound 511] | 0.094 | –
Clc1ccc(-c2nnc(Nc3ccc(Sc4ccnc5[nH]ncc45)cc3)c3ccccc23)cc1 [compound 359] | 0.013 | –
COc1cnc2c(Oc3ccc(Nc4nnc(-c5ccc6c(c5)OC(F)(F)O6)c5ccccc45)cc3)ccnc2c1 [compound 291] | 0.045 | –
COc1cnc2c(Oc3ccc(Nc4nnc(N5CCCCC5)c5ccccc45)cc3)ccnc2c1 [compound 151] | – | EC50 (Homo sapiens, HeLa): 0.128 µM
COCCNc1nnc(Nc2ccc(Sc3ccnc4cc(OC)cnc34)cc2)c2ccccc12 [compound 533] | 0.062 | –
COc1cnc2c(Sc3ccc(Nc4nnc(C5CC5)c5ccccc45)cc3)ccnc2c1 [compound 541] | 0.038 | –
COc1cnc2c(Oc3ccc(Nc4nnc(N5CC[C@@H]6CCCC[C@H]6C5)c5ccccc45)cc3)ccnc2c1 [compound 587] | 0.14 | –
COCc1cccc(-c2nnc(Nc3ccc(Oc4ccnc5cc(OC)cnc45)cc3)c3ccccc23)n1 [compound 120] | – | EC50 (Homo sapiens, HeLa): 0.305 µM
COc1cnc2c(Sc3ccc(Nc4nnc(-c5ccccc5)c5ccccc45)cn3)ccnc2c1 [compound 413] | 0.041 | –
COc1cc2nccc(Oc3ccc(Nc4ncc(-c5ccccc5)c5ccccc45)cc3)c2cn1 [compound 145] | – | EC50 (Homo sapiens, HeLa): > 1.2 µM
c1ccc2c(-c3ccc4c(c3)OCO4)nnc(Nc3ccc(Oc4ccnc5ccncc45)cc3)c2c1 [compound 424] | 0.024 | –
Cc1noc(-c2cc3nccc(Sc4ccc(Nc5nnc(-c6ccccc6)c6ccccc56)cc4)c3s2)n1 [compound 303, N-(4-((2-(3-methyl-1,2,4-oxadiazol-5-yl)thieno[3,2-b]pyridin-7-yl)thio)phenyl)-4-phenyl-1-phthalazinamine] | 0.25 | –
COc1cnc2c(Oc3ccc(Nc4nnc(-c5cccnc5F)c5ccccc45)cc3)ccnc2c1 [compound 191] | > 1.2 | –
COc1cc2nccc(Sc3ccc(Nc4nnc(-c5ccccc5)c5ccccc45)cc3)c2cn1 [compound 353] | 0.007 | –
COc1cnc2c(Oc3ccc(Nc4nnc(-c5ccc(N6CCCCC6)cc5)c5ccccc45)cc3)ccnc2c1 [compound 198] | 0.399 | –
CCOc1nc(-c2nnc(Nc3ccc(Sc4ccnc5cc(OC)cnc45)cc3)c3ccccc23)cs1 [compound 505] | 0.022 | –
CCN(CC)C(=O)c1cc2nccc(Oc3ccc(Nc4nnc(-c5ccc(Cl)cc5)c5ccccc45)cc3)c2s1 [compound 270] | 0.082 | –
COc1ccc2nccc(Oc3ccc(Nc4nnc(-c5ccc(Cl)cc5)c5ccccc45)cc3)c2c1 [compound 239] | 0.001 | –
COc1cnc2c(Sc3ccc(Nc4nnc(N5CCN6CCC[C@@H]6C5)c5ccccc45)cc3)ccnc2c1 [compound 582] | 0.006 | –
Clc1ccc(-c2nnc(Nc3ccc(Sc4ccnc5cccnc45)cc3)c3ccccc23)nc1 [compound 493] | 0.016 | –
Brc1cnc2c(Oc3ccc(Nc4nnc(-c5ccccc5)c5ccccc45)cc3)ccnc2c1 [compound 245] | 0.381 | –
Cc1csc(-c2nnc(Nc3ccc(Sc4ccnc5ccn(C(C)C)c45)cc3)c3ccccc23)c1 [compound 472] | 0.007 | –
COc1ccc2nccc(Oc3ccc(Nc4nnc(-c5ccccc5)c5ccccc45)cc3)c2n1 [compound 347] | 0.039 | –
